# Reference: PMC6010002, “Synthesis, pharmacology and molecular docking on multifunctional tacrine-ferulic acid hybrids as cholinesterase inhibitors against Alzheimer’s disease” (Journal of Enzyme Inhibition and Medicinal Chemistry, 2018)
# Like-named read-outs stand apart in the source and are kept apart here.
# Experiments:
# [1] = molecular target: T1, AChE (EC 3.1.1.7) from electric eel (Electrophorus electricus, UniProt O42275); assay: biochemical; details: for SI (selectivity index, AChE IC50/BuChE IC50): eeAChE IC50 / eqBuChE IC50; for IC50: eeAChE, mean ± SEM of triplicate independent experiments
# T1 construct: AChE (EC 3.1.1.7, Type VI-S, from electric eel, C3389); purchased Sigma-Aldrich C3389; host or cells: electric eel (natural source)
# Description: (§1) AChE (EC 3.1.1.7, Type VI-S, from electric eel, C3389) and BuChE (EC 3.1.1.8, from equine serum, C0663), 5,5’-dithiobis (2-nitrobenzoic acid) (DTNB, D218200), acetylthiocholine iodide (ATC, A5751) and butyrylthiocholine iodide (BTC, B3253) used as substrates were obtained from Sigma-Aldrich (St. Louis, MO).
# (§2) The inhibitory capacity of the synthesised compounds on AChE and BuChE biological activity in this paper were evaluated according to our previously reported method. Briefly, AChE/BuChE stock solution was diluted with 0.2 M phosphate buffer pH 8.0 to give 2.5 units/mL (for electrophorus electricus (eeAChE) and equine serum (eqBuChE)). ATC/BTC iodide solution (0.075 M) was dissolved in deionized water. […] The assay solution was prepared as follows: potassium dihydrogen phosphate (1.36 g, 10 mmol) was dissolved in 100 ml of water. The pH of the solution was then adjusted to 8.0 ± 0.1 with KOH. Stock solutions of the test samples were dissolved in ethanol to give a final concentration of 10 − 4^ M when diluted to the final volume of 3.32 ml. For each compound, a dilution series of five different concentrations 10 − 5–10 − 9^9 M were prepared.
# (§3) For measurement, a cuvette containing 3 mL of phosphate buffer, 100 μL of eeAChE or eqBuChE, 100 μL of DTNB, and 100 μL of the test compound solution was added in sequence. The reaction was initiated by adding 20 μL of ATC or BTC and the solution was mixed immediately. […] For the reference value, 100 μL of water was replaced for the test compound solution. For the blank control, additional 100 μL of water was also replaced for the enzyme solution. The measurement of each concentration was assayed in triplicate. GraphPad Prism 5 (GraphPad Software, Inc., La Jolla, CA) was used for data processing. The inhibition curve was fitted by plotting percentage enzyme activity (100% for the reference) versus the logarithm of test compound concentration. The half maximal inhibitory concentration (IC50) values were calculated according to the curve and the data were shown in mean ± SEM.
# (§4) Inhibitory activities were presented as IC50 (nM).
# [2] = molecular target: T2, BuChE (EC 3.1.1.8) from horse serum (Equus caballus, UniProt P81908); assay: biochemical; details: eqBuChE, mean ± SEM of triplicate independent experiments
# T2 construct: BuChE (EC 3.1.1.8, from equine serum, C0663); purchased Sigma-Aldrich C0663; host or cells: equine serum (natural source)
# Description: as §1, §2, §3, §4
# Aβ1–42 = molecular target: T3, Aβ1–42 (Homo sapiens, UniProt P05067); assay: Inhibition of self-induced Aβ1–42 aggregation (Thioflavin T assay); format: biochemical; details: ThT fluorescence, 24 h incubation, read-out: Inhibitory rate of compounds (25 μM) on self-induced Aβ1-42 aggregation
# T3 construct: aliquots of 2 μL of Aβ1–42 (AS-64129–05 Anaspec Inc.); purchased Anaspec Inc. AS-64129–05
# Description: Inhibitory effects of the compounds on self-induced Aβ1–42 aggregation were tested through a Thioflavin T (ThT)-(T3516, Sigma-Aldrich) binding assay.
# The calculation of the inhibitory rate of Aβ1–42 self-induced aggregation was performed as the following equation: (1 − IFi/IFc) × 100%. IFi and IFc were the fluorescence intensities measured in the presence and absence of inhibitors, respectively, after subtracting the background fluorescence of the 5 mM ThT solution. Each compound was measured in triplicate.
# A thioflavin T-based fluorometric assay was performed.
# [3] = system: scopolamine-induced cognition-impaired adult ICR mice; assay: Morris water maze in scopolamine-induced cognition-impaired mice; format: in vivo; details: 30 mg/kg oral, scopolamine 1 mg/kg i.p., mean ± SEM n = 6
# Description: Behavioral studies were performed using the Morris water maze[25] according to our method reported previously. Adult male imprinting control region (ICR) mice (8–10 weeks old, weight 20–25 g) were obtained from the Yangzhou University Medical Center (Yangzhou, China). All animal handling and experimental protocols were approved by the Institutional Animal Care and Use Committee of the China Pharmaceutical University. Scopolamine hydrobromide was purchased from Aladdin Reagents (S107418, Shanghai, China).
# A circular pool (120 cm in diameter, 60 cm height) which was fixed with an escape platform (10 cm diameter) and filled to a depth of 40 cm fresh water (kept at 25 °C) composed the water maze and this water maze placed in a lit room was used to evaluate the cognition function and memory capacity of mice according to our previously described method[24] . After five days of learning and memory training, a probe trial was performed on day 6. For the evaluation of cognitive function, each mouse was individually trained on a visible-platform (labeled by a small flag, 5 cm tall) for two days and was followed by a hidden-platform version (placed 1 cm below the surface of the water) of the water maze from day 3 to day 5. All mice were subjected to two training trials daily, each of which lasted for 90 s. The time for each mouse to find the platform (a successful escape) was recorded. […] On the last day (day 6), a probe trial was given to the mice in which the platform was removed from the pool and each mouse was allowed 90 s to search for the platform. The time the animals spent to reach the missing platform location and the number of times they crossed that location were recorded.
# Data for the time of escape latency, the swimming trajectory, and the number of visual platform crossings were recorded by Panlab SMART 3.0 (Panlab, S.L.U, Spain) and GraphPad Prism 5 was used to evaluate the level of memory retention.
# adult male ICR mice = format: in vivo; details: serum, 3 mg/100 g body weight, mean ± SEM n = 6
# Description: . Heparinised serum was obtained from the retrobulbar plexus 8, 22, and 36 h after the administration and were subjected to hepatotoxicity evaluation. The activity of aspartate aminotransferase (AST) and alanine aminotransferase (ALT), two indicators of liver damage, was determined by a commercial assay kit (EF551 and EF550 for ALT, EH027 and EF548 for AST, Wako, Japan). The data were analysed by Biochemical Analyzer (HITACHI 7020, Japan).
# Mice were sacrificed 1 h after the collection of retrobulbar blood and livers were removed for morphological studies by using the immunohistochemical method. Two 3 mm sections of each liver extending from the hilus to the margin of the left lateral lobe were isolated using ultra-thin semiautomatic microtome (Leica RM2245, Germany) and placed in 10% buffered formaldehyde immediately, fixed for two days, and embedded together in one paraffin block by using paraffin embedding station (Leica EG1150H, Germany). Subsequently, 5 μm sections were prepared from these paraffin blocks. They were deparaffinated and stained with hematoxylin and eosin (H&E) for histopathological examinations.
# HepG2 cells = details: 24 h, MTT, mean ± SEM n = 3
# Description: To determine the possible drug-induced hepatotoxicity, 10d and 10g were selected for preliminary hepatotoxicity evaluation. Heparinised serum was obtained after the treatment of the compounds at 8, 22, and 36 h, respectively. […] Additionally, immunohistochemical staining was performed on the liver tissues for the histopathological study.
# Methods for Cell Viability Assay. The human hepatocellular HepG2 cells were […]
# Cells were seeded into 96-well plates at a density of 3
# 37 °C for the following experiments. For cytotoxicity test, cells were treated with 0.05- […]
# Cell viability was measured by 3-(4,5- dimethylthiazol-2-yl)-2,5-diphenyltetrazolium bromide (MTT) analysis. In brief, 15 µL of MTT was added into each well and incubated at 37 °C for 4 h. The […]
# viability was calculated and presented by the percentage of vehicle-treated group.
# T1 sequence (O42275 24-633): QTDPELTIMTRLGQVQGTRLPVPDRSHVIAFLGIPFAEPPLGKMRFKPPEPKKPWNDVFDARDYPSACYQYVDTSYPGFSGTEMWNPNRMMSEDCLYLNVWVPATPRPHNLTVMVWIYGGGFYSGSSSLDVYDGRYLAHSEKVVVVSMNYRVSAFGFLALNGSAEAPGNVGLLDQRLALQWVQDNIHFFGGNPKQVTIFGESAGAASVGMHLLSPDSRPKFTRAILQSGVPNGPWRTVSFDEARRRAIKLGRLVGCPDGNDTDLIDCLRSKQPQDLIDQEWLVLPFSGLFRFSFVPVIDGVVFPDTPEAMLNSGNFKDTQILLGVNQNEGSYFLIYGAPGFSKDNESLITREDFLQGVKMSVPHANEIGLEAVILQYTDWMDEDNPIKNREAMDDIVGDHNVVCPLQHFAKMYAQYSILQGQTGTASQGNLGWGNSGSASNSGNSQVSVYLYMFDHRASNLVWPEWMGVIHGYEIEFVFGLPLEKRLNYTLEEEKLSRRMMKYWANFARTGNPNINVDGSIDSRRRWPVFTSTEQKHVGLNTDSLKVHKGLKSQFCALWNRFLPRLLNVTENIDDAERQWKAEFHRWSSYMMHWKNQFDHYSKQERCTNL
# T2 sequence (P81908 whole entry): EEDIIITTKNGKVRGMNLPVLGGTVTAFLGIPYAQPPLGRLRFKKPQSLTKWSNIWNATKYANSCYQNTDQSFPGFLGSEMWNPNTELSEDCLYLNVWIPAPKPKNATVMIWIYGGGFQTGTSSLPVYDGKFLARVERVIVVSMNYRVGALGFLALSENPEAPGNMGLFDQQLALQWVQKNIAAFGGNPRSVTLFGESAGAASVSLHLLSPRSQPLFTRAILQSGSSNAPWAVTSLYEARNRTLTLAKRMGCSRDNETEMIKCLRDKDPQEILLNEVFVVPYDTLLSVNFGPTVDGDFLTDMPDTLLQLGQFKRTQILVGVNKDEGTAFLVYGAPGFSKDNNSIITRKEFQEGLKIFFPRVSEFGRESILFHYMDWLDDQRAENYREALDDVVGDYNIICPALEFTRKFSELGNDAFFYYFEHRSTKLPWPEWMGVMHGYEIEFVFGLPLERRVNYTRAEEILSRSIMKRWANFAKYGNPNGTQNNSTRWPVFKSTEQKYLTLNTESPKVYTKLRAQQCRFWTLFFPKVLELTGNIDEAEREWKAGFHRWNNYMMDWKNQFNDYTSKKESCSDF
# T3 sequence (P05067 672-713): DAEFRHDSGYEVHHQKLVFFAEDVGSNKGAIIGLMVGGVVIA
compound,measurement,setting,value
"COc1cc(/C=C/C(=O)NCCNc2c3c(nc4ccccc24)CCCC3)ccc1OCc1ccccc1 [Compound 10a, (E)-3–(4-(benzyloxy)-3-methoxyphenyl)-N-(2-((1,2,3,4-tetrahydroacridin-9-yl)amino)ethyl)acrylamide]","SI (selectivity index, AChE IC50/BuChE IC50)",[1],0.4
same,IC50,[1],92.2 ± 18.3 nM
same,IC50,[2],215 ± 39.5 nM
"COc1cc(/C=C/C(=O)NCCNc2c3c(nc4ccccc24)CCCC3)ccc1OCc1ccc(F)cc1 [Compound 10b, (E)-3–(4-((4-fluorobenzyl)oxy)-3-methoxyphenyl)-N-(2-((1,2,3,4-tetrahydroacridin-9-yl)amino)ethyl)acrylamide]","SI (selectivity index, AChE IC50/BuChE IC50)",[1],0.7
same,IC50,[1],115 ± 31.2 nM
same,IC50,[2],163 ± 16.6 nM
"COc1cc(/C=C/C(=O)NCCNc2c3c(nc4ccccc24)CCCC3)ccc1OCc1ccc(Cl)cc1 [Compound 10c, (E)-3–(4-((4-chlorobenzyl)oxy)-3-methoxyphenyl)-N-(2-((1,2,3,4-tetrahydroacridin-9-yl)amino)ethyl)acrylamide]","SI (selectivity index, AChE IC50/BuChE IC50)",[1],1.6
same,IC50,[1],101 ± 14.6 nM
same,IC50,[2],62.5 ± 9.9 nM
"COc1cc(/C=C/C(=O)NCCNc2c3c(nc4ccccc24)CCCC3)ccc1OCc1ccccc1C [Compound 10e, (E)-3–(3-methoxy-4-((2-methylbenzyl)oxy)phenyl)-N-(2-((1,2,3,4-tetrahydroacridin-9-yl)amino)ethyl)acrylamide]","SI (selectivity index, AChE IC50/BuChE IC50)",[1],0.7
same,IC50,[1],64.5 ± 7.4 nM
same,IC50,[2],98.6 ± 19.1 nM
"COc1cc(/C=C/C(=O)NCCNc2c3c(nc4ccccc24)CCCC3)ccc1OCc1cccc(C)c1 [Compound 10f, (E)-3–(3-methoxy-4-((3-methylbenzyl)oxy)phenyl)-N-(2-((1,2,3,4-tetrahydroacridin-9-yl)amino)ethyl)acrylamide]","SI (selectivity index, AChE IC50/BuChE IC50)",[1],0.2
same,IC50,[1],63.2 ± 13.5 nM
same,IC50,[2],257 ± 3.7 nM
"COc1cc(/C=C/C(=O)NCCNc2c3c(nc4ccccc24)CCCC3)ccc1OCc1ccc(C)cc1 [Compound 10h, (E)-3–(3-methoxy-4-((4-methylbenzyl)oxy)phenyl)-N-(2-((1,2,3,4-tetrahydroacridin-9-yl)amino)ethyl)acrylamide]","SI (selectivity index, AChE IC50/BuChE IC50)",[1],0.9
same,IC50,[1],140 ± 34.4 nM
same,IC50,[2],147 ± 22.4 nM
"COc1cc(/C=C/C(=O)NCCNc2c3c(nc4ccccc24)CCCC3)ccc1OCc1ccc(C(C)(C)C)cc1 [Compound 10i, (E)-3–(4-((4-(tert-butyl)benzyl)oxy)-3-methoxyphenyl)-N-(2-((1,2,3,4-tetrahydroacridin-9-yl)amino)ethyl)acrylamide]","SI (selectivity index, AChE IC50/BuChE IC50)",[1],1.8
same,IC50,[1],284 ± 59.2 nM
same,IC50,[2],158 ± 22.8 nM
"COc1cc(/C=C/C(=O)NCCNc2c3c(nc4ccccc24)CCCC3)ccc1OCc1ccc(C(F)(F)F)cc1 [Compound 10k, (E)-3–(3-methoxy-4-((4-(trifluoromethyl)benzyl)oxy)phenyl)-N-(2-((1,2,3,4-tetrahydroacridin-9-yl)amino)ethyl)acrylamide]","SI (selectivity index, AChE IC50/BuChE IC50)",[1],2.4
same,IC50,[1],129 ± 16.5 nM
same,IC50,[2],52.7 ± 6.3 nM
"COc1cccc(COc2ccc(/C=C/C(=O)NCCNc3c4c(nc5ccccc35)CCCC4)cc2OC)c1 [Compound 10l, (E)-3–(3-methoxy-4-((3-methoxybenzyl)oxy)phenyl)-N-(2-((1,2,3,4-tetrahydroacridin-9-yl)amino)ethyl)acrylamide]","SI (selectivity index, AChE IC50/BuChE IC50)",[1],0.7
same,IC50,[1],143 ± 40.1 nM
same,IC50,[2],195 ± 16.5 nM
"COc1ccc(COc2ccc(/C=C/C(=O)NCCNc3c4c(nc5ccccc35)CCCC4)cc2OC)cc1 [Compound 10m, (E)-3–(3-methoxy-4-((4-methoxybenzyl)oxy)phenyl)-N-(2-((1,2,3,4-tetrahydroacridin-9-yl)amino)ethyl)acrylamide]","SI (selectivity index, AChE IC50/BuChE IC50)",[1],0.6
same,IC50,[1],75.5 ± 12.8 nM
same,IC50,[2],134 ± 11.1 nM
"Oc1ccc(/C=C/c2cc(O)cc(O)c2)cc1 [Resveratrol, reference compound]",inhibition at 25 µM,Aβ1–42,45.7%
Nc1c2c(nc3ccccc13)CCCC2 [Tacrine],Distance to target,[3],725.64 ± 165.15 cm
same,Speed in virtual platform,[3],15.78 ± 1.03 cm/s
same,Latency to target,[3]; probe trial,25.85 ± 5.52 s
same,ALT,adult male ICR mice; 8 h after i.g. administration,31.8 ± 2.0 U/L
same,AST,adult male ICR mice; 8 h after i.g. administration,133.7 ± 9.0 U/L
same,ALT,adult male ICR mice; 22 h after i.g. administration,25.4 ± 2.8 U/L
same,AST,adult male ICR mice; 22 h after i.g. administration,124.3 ± 12.1 U/L
same,ALT,adult male ICR mice; 36 h after i.g. administration,25.1 ± 2.7 U/L
same,AST,adult male ICR mice; 36 h after i.g. administration,112.4 ± 11.4 U/L
same,Cell viability (% of vehicle),"HepG2 cells; HepG2, 25 µM",106.2 ± 2.3 % of vehicle
same,Cell viability (% of vehicle),"HepG2 cells; HepG2, 125 µM",97.2 ± 2.9 % of vehicle
same,Cell viability (% of vehicle),"HepG2 cells; HepG2, 250 µM",58.9 ± 0.7 % of vehicle
same,Cell viability (% of vehicle),"HepG2 cells; HepG2, 500 µM",22.7 ± 1.6 % of vehicle
